Experimental data: patent US11390591B2, “2,4,6-trisubstituted s-triazine compound, preparation method therefor, and use thereof” (Aluda Pharmaceuticals, Inc., priority 2016, dated 2022)
Read-outs that look alike come from different tables or passages of the source.

Assays:
vimentin = molecular target: T1, vimentin (Homo sapiens, UniProt P08670); test: Fishing of a target protein with a probe (photo-crosslinking, click reaction, MALDI-MS/MS); type: binding; conditions: 0.5 μM probe, U87 cells, 3 hours, UV crosslinking
T1 construct: #79 compound used as a probe is bonded in situ to a target protein within a cell; endogenous in cells; host or cells: U87 human glioma cells
T1 sequence (P08670 whole entry): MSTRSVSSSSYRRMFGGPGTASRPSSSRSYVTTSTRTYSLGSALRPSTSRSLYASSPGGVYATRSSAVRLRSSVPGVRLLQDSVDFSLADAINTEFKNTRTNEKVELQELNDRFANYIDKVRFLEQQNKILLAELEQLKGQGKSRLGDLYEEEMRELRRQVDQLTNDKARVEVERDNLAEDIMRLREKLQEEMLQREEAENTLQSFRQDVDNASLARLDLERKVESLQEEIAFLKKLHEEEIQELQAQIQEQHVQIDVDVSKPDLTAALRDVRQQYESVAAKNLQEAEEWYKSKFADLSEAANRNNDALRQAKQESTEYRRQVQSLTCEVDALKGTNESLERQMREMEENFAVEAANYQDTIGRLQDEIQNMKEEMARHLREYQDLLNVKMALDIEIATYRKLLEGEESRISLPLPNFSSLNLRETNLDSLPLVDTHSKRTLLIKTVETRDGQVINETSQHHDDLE
Protocol: FIG. 4 summarizes isolation and identification of a target protein corresponding to a compound causing cell vacuolization. The related steps are described briefly as follows.
An amount of human glioma cells U87 were plated in an 150 cm^2 Petri dish and cultured for 48 hours to reach 75-90% confluence. The culture medium was replaced with a prewarmed medium containing either 0.5 μM probe (#79 compound) or an equivalent volume of DMSO control. The cells continued in culture for 3 hours.
The cells were washed twice with a prechilled phosphate buffer saline (PBS). The cell-culture dish was placed on ice, and the cells were irradiated with ultraviolet light (an ultraviolet lamp having a power of 100 W, wavelength 350 nm, or 315-385 nm) through the top of the dish for 1 hour. Alternatively, a minimal amount of prechilled PBS (10 ml/150 cm^2) was added to the cell-culture dish which was then placed on an ultraviolet irradiator. The bottom of the cell-culture dish received irradiation for 30 minutes (wavelength 315-385 nm, time being adjusted in light of the ultraviolet power).
The cells were dissociated with trypsin, precipitated by centrifugation, and washed twice with PBS. […] The protein concentration of the cell lysate was measured using the Bradford method. […]

human glioma U87 cells = test: Tumor cell vacuolization (methuosis) scoring, U87; type: cell-based; conditions: for Vacuolation Score: 0.01-3.160 μM, microscope
Protocol: (§1) FIG. 2. Vacuolization of tumor cells. 100 microliter culture medium (RPMI1640, 2 mmol glutamine, 10% fetal bovine serum) containing 10^3 human colon adenocarcinoma cells (HCT15) or human brain glioma cells (U87) and a solvent DMSO control or 100 nM #40 compound (L16) was plated into a 96-well cell culture plate, and cell morphological image was taken under a phase contrast microscope after cultured at 5% CO2 and 37° C. for 96 hours.
Some cells gradually became round and eventually bursted. These changes are consistent with the features of cell death by methuosis (FIG. 2).
In order to compare the ability of different compounds to cause cell vacuolization, 100 μL culture media (RPMI1640, 2 mmol glutamine, 10% fetal bovine serum) comprising 10^3 human glioma U87 cells and final concentrations of 0.01, 0.0316, 0.1, 0.316, 1.0, 3.160 μM respectively of the compounds to be tested were inoculated into a 96-well culture plate. After cultured at 5% CO2 and 37° C. for 96 hours, cell morphology was observed under a high-magnification microscope, and the ability of the compounds to cause cell vacuolization was scored. 5 scores were given when obvious vacuolization occurred at 10 nM, 4 scores at 31.6 nM, 3 scores at 100 nM, 2 scores at 316 nM, 1 score at 1000 nM, and 0 score was given if no vacuolation occurred at any concentration.

[1] = system: cell lines of human non-small cell lung cancer (H522); test: In vitro antineoplastic activity, MTT experiment, H522; type: cell-based; conditions: H522 cells, 48 hours, highest concentration tested 31.6 μM (>30: inhibition rate <50%)
Protocol: (§2) MTT, RPM1640 culture medium, fetal bovine serum, 96-well plate, CO2 thermostatic incubator, American BIO-RAD680 microplate reader, cell lines of human non-small cell lung cancer (H522), and cell lines of human brain glioma (U87) were all obtained commercially.
(§3) (1) Cell inoculation: A single cell suspension was prepared with culture media supplemented with 10% fetal bovine serum, plated into a 96-well plate with 5000 cells per well, each well having a volume of 100 μL, and cultured overnight.
(§4) (2) Preparation of compound solutions: a DMSO stock solution of a compound was diluted on a sterile bench with a culture medium into 5 concentrations to be tested, wherein a double dilution was employed between two adjacent concentrations.
(§5) (3) The compound solutions of various concentrations were added into the 96-well plate cultured overnight, with 100 μL added per well, triplicated wells for each concentration. Since the peripheral wells can have edge effect and are susceptible to contamination, no cells or compounds were added thereto; instead, 100 μL culture solution was added as a blank. Additionally, 100% wells were set to contain the cells and 100 μL culture media without any compound. The plates were incubated in a thermostatic incubator at 37° C. for 48 hours.
(§6) (4) Staining: 10 μL MTT solution (5 mg/mL, prepared with PBS) was added into the 96-well plate for staining. After incubation for 4 hours, centrifugation was performed at 2500 rpm for 10 minutes. Then, a multiple pipette was used to suck the culture solution out of the wells carefully without sucking out the cells while the pipette tip faced downward. 150 μL DMSO was added and shaken on a shaker for 5-10 minutes. Crystals were allowed to dissolve fully, and an OD value for each well was measured using the microplate reader at 570 nm. The inhibition rate was calculated as follows: Inhibition rate (%)=(average OD value of 100% wells−average OD value of compound wells)/(average OD value of 100% wells−average OD value of blank wells)×100%

[2] = system: cell lines of human brain glioma (U87); test: In vitro antineoplastic activity, MTT experiment, U87; type: cell-based
Protocol: as §2, §3, §4, §5, §6

[3] = system: human colon adenocarcinoma cells (HCT15); test: Tumor cell vacuolization, HCT15; type: cell-based; conditions: 100 nM, 96 hours, phase contrast microscope
Protocol: as §1

Row | SMILES | target protein of the compound (vimentin) | Vacuolation Score (human glioma U87 cells; U87 cells, 96 hours) | ability to cause cell vacuolization (in words) (human glioma U87 cells; U87 cells, among the compounds tested) | IC50 [1] | vacuolization of U87 cells (human glioma U87 cells; 100 nM, 96 hours, phase contrast microscope) | IC50 ([2]; U87 cells, MTT, 48 hours, highest concentration tested 31.6 μM, read-out: IC50(μM) U87) | IC50 ([2]; ability to inhibit cell proliferation, U87 (FIG. 3), unit inferred, read-out: IC50) | vacuolization of HCT15 cells [3]
1 | C#CCCC1(CCNC(=O)c2ccc(NC(=O)Nc3ccc(Nc4nc(/C=C/c5ccccc5)nc(N5CCOCC5)n4)cc3)cc2)N=N1 [compound 79, (E)-N-(2-(3-(1-butyn-4-yl)-3H-diaziridin-3-yl)ethyl)-4-(3-(4-((4-(morpholin-1-yl)-6-styrenyl-1,3,5-triazin-2-yl)amino)phenyl)urea)benzamide] | vimentin | 4.5 | same cell phenotype | – | – | – | – | –
2 | O=C(Nc1ccc(Cl)cc1)Nc1ccc(Nc2nc(/C=C/c3cccc([N+](=O)[O-])c3)nc(N3CCOCC3)n2)cc1 [L16, (E)-1-(4-chlorophenyl)-3-(4-(4-(morpholin-1-yl)-6-(3-nitrostyrenyl)-1,3,5-triazinyl-2-amino)phenyl)urea] | – | 4 (4 scores at 31.6 nM) | – | 0.78 ± 0.04 µM | significant vaculization | 1.71 ± 0.06 µM | 1.71 µM | significant vaculization
